From the NIST ThermoML archive (doi:10.1021/je900290w)

Test: cn = amount concentration of the nth substance listed, in mol/dm3

CCCCCCCCCCCCCCCCn1cc[n+](C)c1.[Br-] [1-hexadecyl-3-methylimidazolium bromide] + O
surface tension liquid-gas [mN/m]
Settings	278.15 K	288.15 K	298.15 K	308.15 K	318.15 K	328.15 K
c1 = 5e-06	69.16	66.26	63.93	61.53	58.5	55.05
c1 = 2e-05	63.91	61.84	60	58.48	54.53	51.85
c1 = 0.0001	56.17	52.62	51.14	49.46	47.36	45.42
c1 = 0.0002	50.9	48.63	46.77	45.39	42.7	42.13
c1 = 0.0003	46.66	43.95	43.38	41.17	39.84	39.44
c1 = 0.0004	42.78	41.32	39.38	38.02	37.93	38
c1 = 0.0005	39.25	37.45	37.26	36.21	36.75	37.07
c1 = 0.0008	38.25	37.54	37.37	36.14	36.11	36.2
c1 = 0.0011	38.38	37.4	37.09	36.28	36.18	36.25
c1 = 0.002	38.11	37.87	37.19	36.97	36.12	36.15
c1 = 0.004	37.61	37.33	37.21	36.37	36.04	35.98

CCCCCCCCCCCCn1cc[n+](C)c1.[Br-] [1-dodecyl-3-methylimidazolium bromide] + O
surface tension liquid-gas [mN/m]
Settings	c1 = 0.0001	c1 = 0.0005	c1 = 0.0015	c1 = 0.005	c1 = 0.01	c1 = 0.02	c1 = 0.03	c1 = 0.04	c1 = 0.05
278.15 K	64.79	61.21	56.82	45.33	37.64	37.72	37.73	37.53	37.59
288.15 K	62.93	60.86	56.68	44.27	37.52	37.63	37.41	37.77	37.61
298.15 K	62.21	59.84	55.19	43.81	37.45	37.41	37.15	37.23	37.26
308.15 K	60.48	58.62	55.18	44.47	37.18	37.55	37.38	37.42	37.23
318.15 K	58.84	56.56	53.88	43.89	36.92	37.12	37.47	37.3	37.06
328.15 K	57.61	55.07	50.63	42.36	37.64	37.03	37.16	37.06	37.09

CCCCCCCCCCCCCCn1cc[n+](C)c1.[Br-] [1-methyl-3-tetradecylimidazolium bromide] + O
surface tension liquid-gas [mN/m]
Settings	c1 = 5e-05	c1 = 0.0001	c1 = 0.0003	c1 = 0.0005	c1 = 0.001	c1 = 0.002	c1 = 0.004	c1 = 0.006	c1 = 0.008	c1 = 0.01
278.15 K	64.69	64.07	61.72	55.17	50.32	41.28	38.44	38.68	38.88	38.88
288.15 K	62.69	62.07	59.72	53.17	48.32	40.28	37.94	38.18	38.38	38.38
298.15 K	61.26	60.88	57.1	52.79	47.37	39.48	37.81	37.73	37.57	37.57
308.15 K	59.5	58.59	54.93	51.51	45.26	39.15	37.81	37.51	37.67	37.6
318.15 K	57.16	55.92	52.9	49.56	43.88	39.15	37.12	37.13	37.12	37.13
328.15 K	54.16	52.7	50.17	46.39	42.75	38.28	36.2	36.32	36.58	36.45
